From patent US8754040B2, “Cyclic peptide compound, method for producing same, anti-infective agent, antibiotic-containing fraction, antibiotic, method for producing antibiotic, antibiotic-producing microorganism, and antibiotic produced by same” (priority 2010, dated 2014) come the findings set out here.

The term MIC denotes the smallest concentration in the dilution series that meets the test's criterion for growth inhibition. A higher MIC goes with a less susceptible organism.

Experiment [1] deals with Enterococcus faecalis (EF1). The source says:
(§1) Antibacterial activity of the antibiotic-substance-containing fraction at each fractionation stage from a culture produced from RH2180-5 and that of the antibiotic substance obtained therefrom by separation and purification thereof can be evaluated by MIC. […] For example, it is done with a broth microdilution method based on CLSI (formerly NCCLS: National Committee for Clinical Laboratory Standards).
(§2) Antibacterial spectrum of the RH2180-5 Peak 5 Substance to various bacteria including MRSA and VRE was studied. In addition, influence of chemical resistance was also studied. For study of the latter, Staphylococcus aureus and Enterococcus faecalis were selected, wherein measurement of MIC value of each peak substance was made by a broth microdilution method based on CLSI (formerly NCCLS: National Committee for Clinical Laboratory Standards) as to Staphylococcus aureus not showing resistance to a chemical (hereinafter abbreviated as “MSSA 1”) and two kinds of MRSA showing resistance to many chemicals including methicillin (MRSA 3 and MRSA 4; see Table 3 for resistive chemicals) for Staphylococcus aureus; and as to Enterococcus faecalis not showing resistance to a chemical (hereinafter abbreviated as “EF 1”) and showing resistance to vancomycin (hereinafter abbreviated as “VRE”) for Enterococcus faecalis.
(§3) Test microorganisms of Staphylococcus aureus and Enterococcus faecalis, the same as Test Example 1, were selected; and measurement of MIC value of each peak substance was made by a broth microdilution method based on CLSI (formerly NCCLS: National Committee for Clinical Laboratory Standards) as to MSSA 1 and EF 1, and MRSA 3, MRSA 4, and VRE, the same as Test Example 1.
(§4) Antibacterial spectrum of the foregoing RH2180-5 Peak 5 Substance to various microorganisms including MRSA and VRE was studied. Each MIC value for the case added with 10% blood serum and for the case not added with the same was measured by a broth microdilution method based on CLSI (formerly NCCLS: National Committee for Clinical Laboratory Standards).

Experiment [2] relates to Enterococcus faecalis (VRE).
Text: as §1, §2, §3, §4

Experiment [3] deals with Staphylococcus aureus (MRSA4).
Text: as §1, §2, §3, §4

Experiment [4] has as its system Staphylococcus aureus (MSSA1). To be noted: MSSA1.
Text: as §1, §2, §3, §4

Experiment [5] concerns Staphylococcus aureus (MRSA3).
Text: as §1, §2, §3, §4

Experiment [6] has as its system Staphylococcus aureus. In kind it is cell-based. The procedure: A soil taken from various places was suspended in a physiological saline solution, and then the supernatant thereof was applied on a GA medium and a HV medium; and after incubation at 30° C., grown bacteria was separated and then cultured in an YME medium, a SGM medium, or a CDY medium at 30° C. for 5 days. Equal amount of acetone was added thereinto; and after they were suspended and centrifugally separated, the resulting supernatant was evaporated. The residue thus resulted was diluted with a physiological saline solution, and then the antibacterial activity thereof to Staphylococcus aureus was evaluated by MIC with a broth microdilution method. As a result, antibacterial activity was found in culture supernatant of 3487 strains out of 14346 strains.

Experiment [7] deals with Staphylococcus aureus. Put plainly: silkworm Staphylococcus aureus infection model (therapeutic effect). The experiment is classed as in vivo, silkworm (larva of Bombyx mori). The settings on record: purification stages, Table 2. The source says: In the present invention too, a first screening to narrow down effective strains from several tens of thousands of extraordinary large numbers of strains may be done by any method as far as the antibacterial activity can be evaluated with the said method; and thus, for example, by referring to MIC, test bodies showing the antibacterial activity to Staphylococcus aureus in culture supernatant of each strain may be picked up. This is because strains not showing the antibacterial activity at all are not in the scope of examination. Any method capable of evaluating the antibacterial activity may be used; but a method with which a strain recognized to show, with referring to MIC, the antibacterial activity to Staphylococcus aureus in culture supernatant of various test strains is picked up is preferable. […]
Strains recognized to show the therapeutic effect in the silkworm Staphylococcus aureus infection model are further subjected to various separation and purification treatments wherein the therapeutic effect is evaluated in each operation by using the silkworm Staphylococcus aureus infection model. […]

Experiment [8] has as its system Staphylococcus aureus. The experiment can be described thus: survived cell numbers (CFU) of Staphylococcus aureus after drug addition. The experiment is classed as cell-based. The procedure:
To CA-Mueller Hinton Broth medium were taken 1.8×10^8 Staphylococcus aureus, and then the foregoing RH2180-5 Peak 5 Substance (25 μg/mL), vancomycin (VM, 5 μg/mL), and gentamicin (GM, 2.5 μg/mL) were added thereinto; and then, survived cell numbers after 15 minutes, 30 minutes, 60 minutes, and 120 minutes were obtained as CFU (colony forming unit/mL).

Experiment [9] deals with Smith strain of Staphylococcus aureus. The experiment can be described thus: mouse Staphylococcus aureus infection model (therapeutic effect). The experiment is classed as in vivo, mouse (ICR female). The settings on record: Staphylococcus aureus, ip. The procedure: Smith strain of Staphylococcus aureus was suspended in 7% mucin+0.2 mM ferric ammonium citrate, and 6.2×10^6 (20×LD50) thereof was administered into the peritoneal cavity of 5 mice per group (ICR female of four weeks of age). Each drug was injected hypodermically 2 hours after administration of the bacterium by the method shown below.
Similarly, ED50 of vancomycin to the mouse model used this time was studied. […] Here, ED50 values were obtained by the probit method.

≈ marks a conversion by molar mass, not a printed value. Positions of bridges follow the written chain, without caps; N, C: chain ends. Non-standard residues stand in square brackets, D forms with d. Residues, ends and D or L forms follow the SMILES beside them. *: point of attachment. Hexanoyl(3-OH,5-Me) = CC(C)CC(O)CC(=O)*; dNMeF = CN[C@H](Cc1ccccc1)C(=O)O

`CC[C@H](C)[C@@H]1NC(=O)[C@@H](Cc2c[nH]c3ccccc23)NC(=O)[C@@H](CCC(N)=O)NC(=O)[C@H](CCC(=O)O)NC(=O)[C@@H](CCCNC(=N)N)NC(=O)[C@H](CC(C)C)NC(=O)[C@@H](Cc2ccccc2)NC(=O)CNC(=O)[C@H](CO)NC(=O)[C@@H](CCCNC(=N)N)NC(=O)[C@@H](NC(=O)CC(O)CCCC(C)C)[C@@H](C)OC(=O)[C@H]([C@@H](C)O)NC1=O` (single isomer, unassigned) [Peak P3]: the minimum inhibitory concentration (MIC) in experiment [1] amounted to 50 µg/mL (≈ 30.6 µM); in experiment [2], 50 µg/mL (≈ 30.6 µM); in [3], 25 µg/mL (≈ 15.3 µM); in experiment [4], 25 µg/mL (≈ 15.3 µM); in [5], 25 µg/mL (≈ 15.3 µM).

In the case of `CC[C@H](C)[C@@H]1NC(=O)[C@@H](Cc2c[nH]c3ccccc23)NC(=O)[C@@H](CCC(N)=O)NC(=O)[C@H](CCC(=O)O)NC(=O)[C@@H](CCCNC(=N)N)NC(=O)[C@H](CC(C)C)NC(=O)[C@@H](Cc2ccccc2)NC(=O)CNC(=O)[C@H](CO)NC(=O)[C@@H](CCCNC(=N)N)NC(=O)[C@@H](NC(=O)CC(O)CCCC(C)C)[C@@H](C)OC(=O)[C@H]([C@@H](C)O)NC1=O` (single isomer, unassigned) [Peak P4], the MIC was found to be 50 µg/mL (≈ 30.6 µM) in experiment [1]; 25 µg/mL (≈ 15.3 µM) in experiment [2]; 12.5 µg/mL (≈ 7.66 µM) in [3]; 12.5 µg/mL (≈ 7.66 µM) in [4]; 25.0 µg/mL (≈ 15.3 µM) in experiment [5].

As to `CC[C@H](C)[C@@H]1NC(=O)[C@@H](Cc2c[nH]c3ccccc23)NC(=O)[C@@H](CCC(N)=O)NC(=O)[C@H](CCC(=O)O)NC(=O)[C@@H](CCCNC(=N)N)NC(=O)[C@H](CC(C)C)NC(=O)[C@@H](Cc2ccccc2)N(C)C(=O)CNC(=O)[C@H](CO)NC(=O)[C@@H](CCCNC(=N)N)NC(=O)[C@@H](NC(=O)CC(O)CCC(C)C)[C@@H](C)OC(=O)[C@H]([C@@H](C)O)NC1=O` (single isomer, unassigned) [Peak P7], the MIC in experiment [1] worked out at 50 µg/mL (≈ 30.6 µM); in experiment [2], 25 µg/mL (≈ 15.3 µM); in experiment [3], 12.5 µg/mL (≈ 7.66 µM); in experiment [4], 12.5 µg/mL (≈ 7.66 µM); in [5], 12.5 µg/mL (≈ 7.66 µM).

Consider `CC[C@H](C)[C@@H]1NC(=O)[C@@H](Cc2c[nH]c3ccccc23)NC(=O)[C@@H](CCC(N)=O)NC(=O)[C@H](CCC(=O)O)NC(=O)[C@@H](CCCNC(=N)N)NC(=O)[C@H](CC(C)C)NC(=O)[C@@H](Cc2ccccc2)N(C)C(=O)CNC(=O)[C@H](CO)NC(=O)[C@@H](CCCNC(=N)N)NC(=O)[C@@H](NC(=O)CC(O)CCCC(C)C)[C@@H](C)OC(=O)[C@H]([C@@H](C)O)NC1=O` (single isomer, unassigned) [Peak P8], for which the MIC worked out at 50 µg/mL (≈ 30.4 µM) in experiment [1]; 25 µg/mL (≈ 15.2 µM) in [2]; 12.5 µg/mL (≈ 7.59 µM) in experiment [3]; 12.5 µg/mL (≈ 7.59 µM) in experiment [4]; 12.5 µg/mL (≈ 7.59 µM) in [5].

On to `CC[C@H](C)[C@@H]1NC(=O)[C@@H](Cc2c[nH]c3ccccc23)NC(=O)[C@@H](CCC(N)=O)NC(=O)[C@H](CCC(=O)O)NC(=O)[C@@H](CCCNC(=N)N)NC(=O)[C@H](CC(C)C)NC(=O)[C@@H](Cc2ccccc2)N(C)C(=O)CNC(=O)[C@H](CO)NC(=O)[C@@H](CCCNC(=N)N)NC(=O)[C@@H](NC(=O)CC(O)CCCC(C)C)[C@@H](C)OC(=O)[C@H]([C@@H](C)O)NC1=O` (single isomer, unassigned) [Peak P9], for which the results for the minimum inhibitory concentration (MIC) (in the experiment on Staphylococcus aureus [6]; in experiment [1]; in [2]) were 5 µg/mL (≈ 3.04 µM), 12.5 µg/mL (≈ 7.59 µM) and 12.5 µg/mL (≈ 7.59 µM), respectively. Also, the ED50 in the experiment with Staphylococcus aureus [7] turned out to be 0.3 μg/g-larva.

`CC(C)CC(O)CC(=O)N[C@@H]1C(=O)N[C@H](CCCNC(=N)N)C(=O)N[C@@H](CO)C(=O)NCC(=O)N(C)[C@H](Cc2ccccc2)C(=O)N[C@@H](CC(C)C)C(=O)N[C@H](CCCNC(=N)N)C(=O)N[C@@H](CCC(=O)O)C(=O)N[C@H](CCC(N)=O)C(=O)N[C@H](Cc2c[nH]c3ccccc23)C(=O)N[C@@H](C(C)C)C(=O)N[C@@H]([C@@H](C)O)C(=O)O[C@@H]1C` (stereo partly drawn) [Peak P2] ({Hexanoyl(3-OH,5-Me)}-T[dR]SG[dNMeF]L[dR]E[dQ][dW]VT; ester 1-C): the minimal inhibitory concentration (MIC) in experiment [1] amounted to 50 µg/mL (≈ 31.2 µM); in experiment [2], 50 µg/mL (≈ 31.2 µM); in experiment [3], 6.3 µg/mL (≈ 3.93 µM); in experiment [4] it was 12.5 µg/mL (≈ 7.79 µM); in experiment [5], 12.5 µg/mL (≈ 7.79 µM).

On to `CN[C@H](CC(C)C)C(=O)N[C@H]1C(=O)N[C@@H](CC(N)=O)C(=O)N[C@H]2C(=O)N[C@H]3C(=O)N[C@H](C(=O)N[C@H](C(=O)O)c4cc(O)cc(O)c4-c4cc3ccc4O)[C@H](O)c3ccc(c(Cl)c3)Oc3cc2cc(c3O[C@@H]2O[C@H](CO)[C@@H](O)[C@H](O)[C@H]2O[C@H]2C[C@](C)(N)[C@H](O)[C@H](C)O2)Oc2ccc(cc2Cl)[C@H]1O` [Vancomycin], for which the “CFU/ml of S. aureus” value is recorded as 8.5 × 10^7 CFU/ml in the experiment with Staphylococcus aureus [8] (5 μg/ml, 15 minutes); 4.9 × 10^7 CFU/ml in the experiment on Staphylococcus aureus [8] (5 μg/ml, 30 minutes); 6.8 × 10^7 CFU/ml with Staphylococcus aureus [8] (5 μg/ml, 60 minutes); 3.4 × 10^7 CFU/ml with Staphylococcus aureus [8] (5 μg/ml, 120 minutes). Besides, the ED50 in [9] was determined as 1.6 mg/kg.

With Gentamicin [GM], the “CFU/ml of S. aureus” value is 2.6 × 10^7 CFU/ml in the experiment on Staphylococcus aureus [8] (2.5 μg/ml, 15 minutes); 7.6 × 10^5 CFU/ml in the experiment with Staphylococcus aureus [8] (2.5 μg/ml, 30 minutes); 1.6 × 10^5 CFU/ml with Staphylococcus aureus [8] (2.5 μg/ml, 60 minutes); 4.0 × 10^5 CFU/ml in the experiment with Staphylococcus aureus [8] (2.5 μg/ml, 120 minutes).
